Measurements: PMC4724314 (European journal of medicinal chemistry, 2015)
Counter-ions that a name gives are not always drawn.

Assays:
IDO1 [1] = target: T1, IDO1 (Homo sapiens, UniProt P14902); assay: Recombinant human IDO1 enzyme inhibition assay; assay type: biochemical; details: for ligand efficiency: LE=1.37*pKi/number of heavy atoms; for mode of inhibition: Lineweaver-Burk graphical analysis
HeLa cells = assay: Cell viability; assay type: cell-based, human; details: up to concentrations of 100 μM
catalase = assay: Catalase inhibition; assay type: biochemical; details: catalase IC50 relative to IDO1 IC50
human serum protein = assay: Impact of human serum protein binding on inhibitory activity; assay type: in vitro ADME
IDO1 [2] = target: T1, IDO1; assay: UV-Vis absorption spectroscopy of inhibitor binding to IDO1; details: 500 μM inhibitor; for effect of inhibitor on CO-bound ferrous IDO1: CO as surrogate for O2; for Soret band of deoxy ferrous IDO1 on inhibitor binding: without inhibitor 427 nm

T1 sequence (P14902 whole entry): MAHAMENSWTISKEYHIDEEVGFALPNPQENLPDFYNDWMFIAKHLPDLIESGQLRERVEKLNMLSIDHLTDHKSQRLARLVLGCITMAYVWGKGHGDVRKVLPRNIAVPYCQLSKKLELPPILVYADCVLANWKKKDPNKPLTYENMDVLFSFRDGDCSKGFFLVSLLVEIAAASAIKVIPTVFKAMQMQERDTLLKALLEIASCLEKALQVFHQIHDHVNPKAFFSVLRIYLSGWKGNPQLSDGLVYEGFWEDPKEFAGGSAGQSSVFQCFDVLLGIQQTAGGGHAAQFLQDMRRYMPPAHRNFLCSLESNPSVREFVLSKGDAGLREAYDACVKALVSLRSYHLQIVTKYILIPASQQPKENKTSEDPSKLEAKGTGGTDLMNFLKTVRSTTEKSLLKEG
Chain of catalase (P00432 2-527): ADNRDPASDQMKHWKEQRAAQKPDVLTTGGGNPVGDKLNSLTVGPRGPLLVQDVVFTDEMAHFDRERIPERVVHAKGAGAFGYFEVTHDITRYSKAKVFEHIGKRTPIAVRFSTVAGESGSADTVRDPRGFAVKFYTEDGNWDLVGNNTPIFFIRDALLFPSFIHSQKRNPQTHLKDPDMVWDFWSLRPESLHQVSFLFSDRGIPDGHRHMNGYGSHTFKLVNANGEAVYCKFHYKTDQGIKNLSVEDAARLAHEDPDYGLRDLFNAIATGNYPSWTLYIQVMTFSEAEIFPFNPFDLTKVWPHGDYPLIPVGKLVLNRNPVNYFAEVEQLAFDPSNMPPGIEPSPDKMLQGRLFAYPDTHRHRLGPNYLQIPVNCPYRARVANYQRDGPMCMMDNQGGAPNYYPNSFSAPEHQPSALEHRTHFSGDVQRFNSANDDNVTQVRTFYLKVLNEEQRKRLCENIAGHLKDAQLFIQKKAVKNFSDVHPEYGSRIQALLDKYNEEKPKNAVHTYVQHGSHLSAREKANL

| Structure (SMILES) | IC50 (IDO1 [1]) | Soret band of deoxy ferrous IDO1 on inhibitor binding (IDO1 [2]) | cell viability (cytotoxicity) (HeLa cells) | Catalase Fold (catalase) | reversibility of IDO1 inhibition (IDO1 [1]) | ligand efficiency (IDO1 [1]) | mode of inhibition (IDO1 [1]) | impact of human serum protein binding on inhibitory activity (human serum protein) | effect of inhibitor on CO-bound ferrous IDO1 (IDO1 [2]) |
| --- | --- | --- | --- | --- | --- | --- | --- | --- | --- |
| Cl.NOCc1cccc(Cl)c1 [Compound 9, O-(3-Chlorobenzyl)hydroxylamine hydrochloride] | – | – | good cell viability | > 320 fold | reversible | 0.93 | uncompetitive | relatively unaffected | – |
| NOCc1ccccc1 [Lead, O-benzylhydroxylamine] | – | 419–421 nm | – | – | – | – | – | – | inhibitor binding prevents CO binding to the heme iron |
| NNc1ccccc1 [Ph-NH-NH2, phenylhydrazine] | – | – | – | – | did not see any signs of irreversible inhibition | – | – | – | – |
| COc1ccc(OC)c(CON)c1.Cl [Compound 40, O-(2,5-Dimethoxybenzyl)hydroxylamine hydrochloride] | – | 419–421 nm | – | – | – | – | – | – | inhibitor binding partially prevents CO binding to the heme iron |

Second part, led by results:

| IC50 (IDO1 [1]) | Soret band of deoxy ferrous IDO1 on inhibitor binding (IDO1 [2]) | Structure (SMILES) | cell viability (cytotoxicity) (HeLa cells) | Catalase Fold (catalase) | reversibility of IDO1 inhibition (IDO1 [1]) | ligand efficiency (IDO1 [1]) | mode of inhibition (IDO1 [1]) | impact of human serum protein binding on inhibitory activity (human serum protein) | effect of inhibitor on CO-bound ferrous IDO1 (IDO1 [2]) |
| --- | --- | --- | --- | --- | --- | --- | --- | --- | --- |
| 20 µM | – | NOCCc1ccccc1 [Compound 5, O-Phenethylhydroxylamine hydrochloride] | – | – | – | – | – | – | – |
| – | 419–421 nm | Cl.NOCc1ccc(I)cc1 [Compound 8, 4-(Iodobenzyl)hydroxylamine hydrochloride] | good cell viability | > 300 fold | reversible | 0.93 | uncompetitive | substantial reduction in inhibitory activity | inhibitor binding partially prevents CO binding to the heme iron |
